How the values were obtained:
[1] = test system: DLD-1 colorectal cancer cells; test: Induction of apoptosis, Annexin V-FITC / propidium iodide flow cytometry; type: cell-based, human; conditions: 24 hours
Protocol: (§1) DLD-1 human colorectal cancer cells (ATCC CCL-221, Manassas, VA, USA) were grown in DMEM (Dulbecco's Modified Eagle's Medium) supplemented with 10% fetal bovine serum (FBS), 2 mM glutamine, 50 U/ml penicillin, 50 μg/ml streptomycin at 37° C., in atmosphere containing 5% of CO2. Then the cells were counted in a hemocytometer and transferred in the amount of 1×10^6 cells per well in 1 ml of culture medium from Costar flasks (Sigma, USA) to Nunc 6-well plates (Wiesbaden, Germany). The cells were transferred using calcium-free phosphate buffer with the addition of 0.05% trypsin and 0.02% EDTA. […] Within the subsequent 24 hours the cells covered at least 80% of the surface of each plate well. The cells prepared in this manner were incubated with the examined compounds for 24 hours and then used for further experiments.
Induction of apoptosis was examined by a method using fluorescein isothiocyanate-labelled Annexin V (Annexin V-FITC) which forms complexes with phosphatidylserine in the presence of calcium ions. The complexes were determined using FITC Annexin V Apoptosis Detection Kit II (BD Biosciences, USA) and a flow cytometer BD FACSCanto H (BD Biosciences Systems, San Jose, CA, USA). The analysis of results was carried out by means of FACSDiva software (BD Biosciences Systems, San Jose, CA USA).
DLD-1 and HT-29 cells were incubated for 24 hours in an incubator at 37° C. in a 5% CO2 atmosphere with medium containing the examined compounds according to the invention at specific concentrations. Both examined compounds were used at a concentration of 1.5 μM and 3.0 μM. After the incubation period, the medium was removed, a binding buffer included in the kit was added and the cells were suspended in the buffer. In order to calibrate the apparatus two control samples, i.e. a positive one and a negative one, were prepared. The positive control constituted a reference of control cells in which apoptosis was induced by the addition of 3% formaldehyde. Three control samples were prepared. The first sample contained control cells and propidium iodide, the second sample contained control cells and Annexin V-FITC and the third sample contained control cells, propidium iodide and Annexin V-FITC. After adding 2 μl of 3% formaldehyde the cells were placed in a refrigerator for 10 minutes. Cells that were not treated with any agent constituted the negative control. The cells from the control samples and the cells treated by the examined compounds according to the invention (1×10^6 cells/ml) suspended in the buffer included in the kit were subjected to further examination. 200 μl suspension were taken from each examined sample and were transferred to test tubes. 3 μl Annexin V-FITC and 5 μl propidium iodide (PI) were added to each sample in room temperature and the samples were placed in a dark place for 15 minutes. Cell suspension prepared in this manner was analyzed within one hour in the flow cytometer BD FACSCanto II (BD Biosciences Systems, San Jose, CA, USA) by means of FACSDiva software. The results of the above experiment can be described as follows: live cells (double negative sample—lack of reaction with Annexin V and P), early apoptosis (Annexin V positive and PI negative sample), late apoptosis (Annexin V positive and PI positive sample) and necrosis (Annexin V negative and PI positive sample)

[2] = test system: DLD-1 human colorectal cancer cells; test: DNA biosynthesis, [3H]-thymidine incorporation; type: cell-based; conditions: DLD-1, 24-hour incubation
Protocol: as §1
The effect of the examined compounds according to the invention on the process of DNA biosynthesis was assessed by measuring incorporation of [^3H]-thymidine into DNA of the examined cells. […] After 5 minutes, the cell lysate obtained was transferred to scintillation vials containing 2 ml of scintillation fluid and radioactivity was measured. […] The values from the examined samples were expressed as percentage of the control value. The significance level p was determined by the nonparametric Mann-Whitney U test by means of SigmaStat software. […]

[3] = DLD-1, 3.0 μM, listed as compound of Formula 3

Row | IC50 [2] | Structure (SMILES) | Early apoptosis ([1]; DLD-1, 1.5 μM) | Late apoptosis ([1]; DLD-1, 1.5 μM) | Live cells ([1]; DLD-1, 1.5 μM) | Necrosis ([1]; DLD-1, 1.5 μM) | early and late apoptotic cells (total) ([1]; DLD-1, 1.5 μM) | Necrosis ([1]; DLD-1, 1.5 μM, listed as compound of Formula 3) | Early apoptosis ([1]; DLD-1, 3.0 μM) | Late apoptosis ([1]; DLD-1, 3.0 μM) | Live cells ([1]; DLD-1, 3.0 μM) | Necrosis ([1]; DLD-1, 3.0 μM) | Early apoptosis [1, 3] | Late apoptosis [1, 3] | Necrosis [1, 3] | Necrosis ([1]; DLD-1, 1.5 μM, listed as compound of Formula 2) | early and late apoptotic cells (total) ([1]; DLD-1, 3.0 μM) | Necrosis ([1]; DLD-1, 3.0 μM, listed as compound of Formula 2)
1 | 1550 ± 20 nM | COC(=O)C1CC(O)CN1S(=O)(=O)c1ccc(-n2nc(C)c3nc4nnnn4nc32)cc1 (stereo not drawn) [Compound of Formula 3, Methyl 4-hydroxy-1-[4-(7-methyl-5H-pyrazolo[4,3-e]tetrazolo[4,5-b][1,2,4]triazyn-5-yl)phenylsulfonyl]pyrrolidine-2-carboxylate] | 17.0% | 32.1% | 43.9% | 7.0% | 49.1% | 7.0% | 1.7% | 80.8% | 11.0% | 6.5% | 1.7% | 80.8% | 6.5% | – | – | –
2 | 560 ± 10 nM | COC(=O)C1CCCN1S(=O)(=O)c1ccc(-n2nc(C)c3nc4nnnn4nc32)cc1 (stereo not drawn) [Compound of Formula 2, Methyl 1-[4-(7-methyl-5H-pyrazol[4,3-e]tetrazolo[4,5-b][1,2,4]triazyn-5-yl)phenylsulfonyl]pyrrolidine-2-carboxylate] | 13.1% | 9.6% | 74.8% | 2.5% | 22.7% | – | 16.4% | 30.0% | 47.1% | 6.6% | – | – | – | 2.5% | 46.4% | 6.6%
